From patent US20070148051A1, “Chemical volatilization device” (Dainihon Jochugiku Co., Ltd., priority 2005, published 2007)

Legend:
[1] = test system: harmful insects such as mosquitoes and midges; experiment: Experiment Example 2: device suspended in a doghouse, insecticidal effects; type: in vivo; settings: 70 mg Compound A retained, 1400 rpm, 8 hours per day for about 30 days
Source text: Two-dimensional mesh-like chemical-retaining fibers 2 were woven using twisted polyester fibers, and supportive connecting chemical-retaining fibers 3 (upper and lower widths: 2.5 mm), comprised of nylon fibers, were arranged in a state in which a columnar structure and a diagonal structure were overlapped based on the constitution of the aforementioned (8) shown in FIG. 8 to produce a disc-like chemical retainer 1 having an overall thickness in the vertical direction of 4.2 mm and an outer diameter of 4.5 cm.
70 mg of Compound A (2,3,5,6-tetrafluorobenzyl-2,2-dimethyl-3-(2,2-dichlorovinyl)cyclopropane carboxylate) was retained instead of the chemical used in Experiment Example 1 and activated for 240 hours.
This chemical retainer 1 was housed in the protective case 4 of Experiment Example 1, activated for 8 hours per day by suspending in a doghouse at a rotating speed of 1400 rpm, and said activation was continued for about 30 days.

mosquitoes = experiment: Experiment Example 1: chemical volatilization device activated, mosquito control; type: in vivo; settings: 40 mg Compound C dissolved in kerosene retained in chemical retainer, 1200 rpm, over about 120 hours
Source text: Two-dimensional mesh-like chemical-retaining fibers 2 were woven on both the upper and lower sides using twisted polyester fibers, and supportive connecting chemical-retaining fibers 3 (upper and lower widths: 3 mm), comprised of polyester fibers, were arranged between both sides based on a diagonal structure according to the constitution of the aforementioned (6) as shown in FIG. 6 to produce a disc-like chemical retainer 1 having an overall thickness in the vertical direction of 4.0 mm and an outer diameter of 4.0 cm.
The chemical retainer 1 was housed in a protective case 4 made of polycarbonate (outer diameter: 5.0 cm, thickness: 8 mm), and the protective case 4 employed a roughly circular cross-section for circumferential retaining frames 41.
In this type of chemical retainer 1, a chemical solution, in which 40 mg of Compound C (4-methoxymethyl-2,3,5,6-tetrafluorobenzyl-2,2-dimethyl-3-(1-propenyl)cyclopropane carboxylate) were dissolved in kerosene, was retained in said chemical retainer 1, and after housing in the protective case 4, was activated for 120 hours at a rotating speed of 1200 rpm.

Structure (SMILES)	insecticidal effects against harmful insects during continuous activation [1]	control of mosquitoes during activation (mosquitoes)
CC1(C)C(C=C(Cl)Cl)C1C(=O)OCc1c(F)c(F)cc(F)c1F (centres unmarked) [Compound A, 2,3,5,6-tetrafluorobenzyl-2,2-dimethyl-3-(2,2-dichlorovinyl) cyclopropane carboxylate]	stable insecticidal effects	
CC=CC1C(C(=O)OCc2c(F)c(F)c(COC)c(F)c2F)C1(C)C (centres unmarked) [Compound C, 4-methoxymethyl-2,3,5,6-tetrafluorobenzyl-2,2-dimethyl-3-(1-propenyl)cyclopropane carboxylate]		effectively controlled
